Biological target: recombinant human DPP-4 (Homo sapiens, UniProt P27487)
Experiment: recombinant human DPP-4 fluorogenic substrate cleavage assay
Assay type: biochemical
Details: compound 10 uM, substrate (H-Ala-Pro)-2-Rh110 10 μM, 1 hour pre-incubation, room temperature; for inhibition at 10 µM: read-out: % Inhib at 10 uM
Protocol: For compound screening, the assay employed measures the activity of recombinant human DPP-4 to cleave the synthetic fluorogenic substrate (H-Ala-Pro)-2—Rh110. The reaction is run in 384-well plates. Compound solutions in assay buffer are pre-incubated with the human recombinant DPP-4 and the reaction is initiated by the addition of the substrate. The product of the reaction is quantified by measuring the fluorescence intensity using Tecan Ultraplate reader. For each compound concentration tested, the percent of inhibition is calculated.
For the determination of IC50 and/or % of inhibition values, the assay is performed at room temperature in 384-well plates using a TECAN Ultra plate reader. Total assay volume is 30 μl. Test compounds are dissolved in 90% (v/v) DMSO/water and diluted in water containing 0.05% (w/v) CHAPS to 3-times the desired assay concentration. For the assay, 10 μl water/CHAPS (±test compound) are added per well, followed by the addition of 10 μl hDPP4 solution (diluted with 1.5× assay buffer, i.e. 37.5 mM Tris/HCl, pH 7.4, 210 mM NaCl, 15 mM KCl, and 0.05% (w/v) CHAPS). The final assay concentrations are […] for hDPP4 according to the enzyme concentrations determined by the Bradford method. After 1 hour of pre-incubation at room temperature, the reaction is started by the addition of 10 μl substrate solution (substrate dilutes in 1.5× assay buffer, final substrate concentration is 10 μM). The effect of the compound on the enzymatic activity is obtained from the linear progression curves and determined from two readings, the first one taken directly after the addition of substrate (t=0 min) and the second one after 1 hour (t=60 min). The apparent inhibition constant, IC50, is calculated from the plot of percentage of inhibition vs. inhibitor concentration using non-linear regression analysis software (XLfit, Vers. 4.0; ID Business Solution Ltd., Guildford, Surrey, UK).

recombinant human DPP-4, sequence (P27487 whole entry): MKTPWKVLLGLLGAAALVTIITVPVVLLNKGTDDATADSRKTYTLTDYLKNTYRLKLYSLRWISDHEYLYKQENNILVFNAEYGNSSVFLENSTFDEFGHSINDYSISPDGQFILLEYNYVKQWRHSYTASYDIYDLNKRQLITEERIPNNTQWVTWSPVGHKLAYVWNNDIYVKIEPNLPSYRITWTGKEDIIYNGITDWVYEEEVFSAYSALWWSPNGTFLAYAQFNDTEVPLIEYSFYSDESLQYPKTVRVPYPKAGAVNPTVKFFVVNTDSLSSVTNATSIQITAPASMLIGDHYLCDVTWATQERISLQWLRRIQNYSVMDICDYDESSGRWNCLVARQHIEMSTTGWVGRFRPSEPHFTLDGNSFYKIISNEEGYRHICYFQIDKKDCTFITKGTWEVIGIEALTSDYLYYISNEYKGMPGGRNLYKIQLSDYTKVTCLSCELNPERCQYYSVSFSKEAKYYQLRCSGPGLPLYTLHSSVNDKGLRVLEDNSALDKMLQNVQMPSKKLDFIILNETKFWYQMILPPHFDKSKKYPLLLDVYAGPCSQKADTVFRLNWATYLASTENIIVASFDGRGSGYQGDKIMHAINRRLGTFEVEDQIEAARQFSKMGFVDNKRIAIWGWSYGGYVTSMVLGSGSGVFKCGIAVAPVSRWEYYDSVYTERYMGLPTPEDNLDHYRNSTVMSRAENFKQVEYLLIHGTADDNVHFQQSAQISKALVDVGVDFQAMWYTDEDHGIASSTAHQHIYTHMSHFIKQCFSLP

inhibition at 10 µM | % Inhib at 10 uM | Structure (SMILES)
99.9% | – | N[C@@H](CCN1CCCC(c2ccccc2)C1)Cc1cc(F)c(F)cc1F (stereo partly drawn) [Compound 1, (R)-3-(3-Phenyl-piperidin-1-yl)-1-(2,4,5-trifluoro-benzyl)-propylamine]
99.5% | – | COc1ccc(C2CCCN(CC[C@H](N)Cc3cc(F)c(F)cc3F)C2)cc1 (stereo partly drawn) [Compound 2, (R)-3-[3-(4-Methoxy-phenyl)-piperidin-1-yl]-1-(2,4,5-trifluoro-benzyl)-propylamine]
98.9% | – | COc1ccccc1C1CCCN(CC[C@H](N)Cc2cc(F)c(F)cc2F)C1 (stereo partly drawn) [Compound 4, (R)-3-[3-(2-Methoxy-phenyl)-piperidin-1-yl]-1-(2,4,5-trifluoro-benzyl)-propylamine]
99.3% | – | N[C@@H](CCN1CCCC(c2ccc(C(F)(F)F)cc2)C1)Cc1cc(F)c(F)cc1F (stereo partly drawn) [Compound 5, (R)-1-(2,4,5-Trifluoro-benzyl)-3-[3-(4-trifluoromethyl-phenyl)-piperidin-1-yl]-propylamine]
98.9% | – | N[C@@H](CCN1CCCC(c2cccc(C(F)(F)F)c2)C1)Cc1cc(F)c(F)cc1F (stereo partly drawn) [Compound 6, (R)-1-(2,4,5-Trifluoro-benzyl)-3-[3-(3-trifluoromethyl-phenyl)-piperidin-1-yl]-propylamine]
98.3% | – | N[C@@H](CCN1CCCC(c2ccccc2C(F)(F)F)C1)Cc1cc(F)c(F)cc1F (stereo partly drawn) [Compound 7, (R)-1-(2,4,5-Trifluoro-benzyl)-3-[3-(2-trifluoromethyl-phenyl)-piperidin-1-yl]-propylamine]
99.6% | – | Cc1ccc(C2CCCN(CC[C@H](N)Cc3cc(F)c(F)cc3F)C2)cc1 (stereo partly drawn) [Compound 8, (R)-3-(3-p-Tolyl-piperidin-1-yl)-1-(2,4,5-trifluoro-benzyl)-propylamine]
99.7% | – | Cc1cccc(C2CCCN(CC[C@H](N)Cc3cc(F)c(F)cc3F)C2)c1 (stereo partly drawn) [Compound 9, (R)-3-(3-m-Tolyl-piperidin-1-yl)-1-(2,4,5-trifluoro-benzyl)-propylamine]
99.4% | – | Cc1ccccc1C1CCCN(CC[C@H](N)Cc2cc(F)c(F)cc2F)C1 (stereo partly drawn) [Compound 10, (R)-3-(3-o-Tolyl-piperidin-1-yl)-1-(2,4,5-trifluoro-benzyl)-propylamine]
99.6% | – | N[C@@H](CCN1CCCC(c2ccc(F)cc2)C1)Cc1cc(F)c(F)cc1F (stereo partly drawn) [Compound 11, (R)-3-[3-(4-Fluoro-phenyl)-piperidin-1-yl]-1-(2,4,5-trifluoro-benzyl)-propylamine]
99.7% | – | N[C@@H](CCN1CCCC(c2cccc(F)c2)C1)Cc1cc(F)c(F)cc1F (stereo partly drawn) [Compound 12, (R)-3-[3-(3-Fluoro-phenyl)-piperidin-1-yl]-1-(2,4,5-trifluoro-benzyl)-propylamine]
99.6% | – | N[C@@H](CCN1CCC(c2ccccc2)C1)Cc1cc(F)c(F)cc1F (stereo partly drawn) [Compound 14, (R)-3-(3-Phenyl-pyrrolidin-1-yl)-1-(2,4,5-trifluoro-benzyl)-propylamine]
99.3% | – | N[C@@H](CCN1CCC(c2cccc(Cl)c2)C1)Cc1cc(F)c(F)cc1F (stereo partly drawn) [Compound 15, (R)-3-[3-(3-Chloro-phenyl)-pyrrolidin-1-yl]-1-(2,4,5-trifluoro-benzyl)-propylamine]
99.5% | – | N[C@@H](CCN1CCC(c2ccccc2Cl)C1)Cc1cc(F)c(F)cc1F (stereo partly drawn) [Compound 16, (R)-3-[3-(2-Chloro-phenyl)-pyrrolidin-1-yl]-1-(2,4,5-trifluoro-benzyl)-propylamine]
98.4% | – | COc1ccc(C2CCN(CC[C@H](N)Cc3cc(F)c(F)cc3F)C2)cc1 (stereo partly drawn) [Compound 17, (R)-3-[3-(4-Methoxy-phenyl)-pyrrolidin-1-yl]-1-(2,4,5-trifluoro-benzyl)-propylamine]
99.2% | – | COc1ccccc1C1CCN(CC[C@H](N)Cc2cc(F)c(F)cc2F)C1 (stereo partly drawn) [Compound 19, (R)-3-[3-(2-Methoxy-phenyl)-pyrrolidin-1-yl]-1-(2,4,5-trifluoro-benzyl)-propylamine]
99.1% | – | N[C@@H](CCN1CCC(c2ccc(C(F)(F)F)cc2)C1)Cc1cc(F)c(F)cc1F (stereo partly drawn) [Compound 20, (R)-1-(2,4,5-Trifluoro-benzyl)-3-[3-(4-trifluoromethyl-phenyl)-pyrrolidin-1-yl]-propylamine]
99.6% | – | N[C@@H](CCN1CCC(c2ccc(F)cc2)C1)Cc1cc(F)c(F)cc1F (stereo partly drawn) [Compound 21, (R)-3-[3-(4-Fluoro-phenyl)-pyrrolidin-1-yl]-1-(2,4,5-trifluoro-benzyl)-propylamine]
99.6% | – | N[C@@H](CCN1CCC(c2cccc(F)c2)C1)Cc1cc(F)c(F)cc1F (stereo partly drawn) [Compound 22, (R)-3-[3-(3-Fluoro-phenyl)-pyrrolidin-1-yl]-1-(2,4,5-trifluoro-benzyl)-propylamine]
99.5% | – | N[C@@H](CCN1CCC(c2ccccc2F)C1)Cc1cc(F)c(F)cc1F (stereo partly drawn) [Compound 23, (R)-3-[3-(2-Fluoro-phenyl)-pyrrolidin-1-yl]-1-(2,4,5-trifluoro-benzyl)-propylamine]
99.3% | – | N[C@@H](CCN1CCCCC1)Cc1cc(F)c(F)cc1F [Compound 24, (R)-3-Piperidin-1-yl-1-(2,4,5-trifluoro-benzyl)-propylamine]
98.6% | – | CC1CCCN(CC[C@H](N)Cc2cc(F)c(F)cc2F)C1 (stereo partly drawn) [Compound 25, (R)-3-(3-Methyl-piperidin-1-yl)-1-(2,4,5-trifluoro-benzyl)-propylamine]
99.5% | – | COCC1CCCN(CC[C@H](N)Cc2cc(F)c(F)cc2F)C1 (stereo partly drawn) [Compound 26, (R)-3-(3-Methoxymethyl-piperidin-1-yl)-1-(2,4,5-trifluoro-benzyl)-propylamine]
99.7% | – | N[C@@H](CCN1CCCC(c2ccc3c(c2)OCO3)C1)Cc1cc(F)c(F)cc1F (stereo partly drawn) [Compound 27, (R)-3-(3-Benzo[1,3]dioxol-5-yl-piperidin-1-yl)-1-(2,4,5-trifluoro-benzyl)-propylamine]
99.1% | – | N[C@@H](CCN1CCCC1)Cc1cc(F)c(F)cc1F [Compound 28, (R)-3-Pyrrolidin-1-yl-1-(2,4,5-trifluoro-benzyl)-propylamine]
– | 99.4% | N[C@@H](CCN1CC[C@H](c2ccc(F)cc2)C1)Cc1cc(F)c(F)cc1F [Compound 29]

Structure (SMILES) | inhibition at 10 µM | % Inhib at 10 uM
COc1cccc(C2CCCN(CC[C@H](N)Cc3cc(F)c(F)cc3F)C2)c1 (stereo partly drawn) [Compound 3, (R)-3-[3-(3-Methoxy-phenyl)-piperidin-1-yl]-1-(2,4,5-trifluoro-benzyl)-propylamine] | 97.9% | –
COc1cccc(C2CCN(CC[C@H](N)Cc3cc(F)c(F)cc3F)C2)c1 (stereo partly drawn) [Compound 18, (R)-3-[3-(3-Methoxy-phenyl)-pyrrolidin-1-yl]-1-(2,4,5-trifluoro-benzyl)-propylamine] | 99.2% | –

Reference: patent US20100076024A1, “Novel Compounds as Serine Protease Inhibitors” (priority 2007, published 2010)
